According to patent publication US7396834B2, “4(Phenyl-piperazinyl-methyl) benzamide derivatives and their use for the treatment of pain or gastrointestinal disorders” (AstraZeneca AB, priority 2002, dated 2008):

What was measured:
[1] = biological target: T1, cloned human δ receptors (Homo sapiens, UniProt P41143); test: Human δ receptor radioligand binding assay
T1 construct: expressed in transfected cells; host or cells: human HEK-293S cells, grown in suspension under geneticin selection

[2] = biological target: T2, cloned human μ receptors (Homo sapiens, UniProt P35372); test: Human μ receptor radioligand binding assay
T2 construct: expressed in transfected cells; host or cells: human HEK-293S cells, grown in suspension under geneticin selection
T2 sequence (P35372 whole entry): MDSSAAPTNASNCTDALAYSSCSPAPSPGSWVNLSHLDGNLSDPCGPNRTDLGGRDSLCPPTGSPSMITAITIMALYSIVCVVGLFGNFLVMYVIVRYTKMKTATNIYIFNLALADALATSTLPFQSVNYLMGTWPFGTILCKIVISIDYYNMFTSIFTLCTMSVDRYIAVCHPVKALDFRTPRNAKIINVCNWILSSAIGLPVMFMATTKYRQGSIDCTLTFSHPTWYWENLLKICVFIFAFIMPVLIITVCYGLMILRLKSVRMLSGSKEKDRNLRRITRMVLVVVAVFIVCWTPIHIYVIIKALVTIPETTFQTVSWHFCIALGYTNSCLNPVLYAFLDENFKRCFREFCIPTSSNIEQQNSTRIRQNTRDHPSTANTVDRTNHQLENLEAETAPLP

[3] = biological target: T1, cloned human δ receptors; test: Human δ receptor GTP[γ]35S functional assay (low expression); type: biochemical; conditions: for Emax: relative to SNC80, lower expression level, range over the listed compounds
Method: (§1) Human 293S cells expressing cloned human κ, δ and μ receptors and neomycin resistance are grown in suspension at 37° C. and 5% CO2 in shaker flasks containing calcium-free DMEM10% FBS, 5% BCS, 0.1% Pluronic F-68, and 600 μg/ml geneticin.
(§2) Cells are pelleted and resuspended in lysis buffer (50 mM Tris, pH 7.0, 2.5 mM EDTA, with PMSF added just prior to use to 0.1 mM from a 0.1 M stock in ethanol), incubated on ice for 15 min, then homogenized with a polytron for 30 sec. The suspension is spun at 1000 g (max) for 10 min at 4° C. The supernatant is saved on ice and the pellets resuspended and spun as before. The supernatants from both spins are combined and spun at 46,000 g(max) for 30 min. The pellets are resuspended in cold Tris buffer (50 mM Tris/Cl, pH 7.0) and spun again. The final pellets are resuspended in membrane buffer (50 mM Tris, 0.32 M sucrose, pH 7.0). Aliquots (1 ml) in polypropylene tubes are frozen in dry ice/ethanol and stored at −70° C. until use. The protein concentrations are determined by a modified Lowry assay with sodium dodecyl sulfate.
The agonist activity of the compounds is measured by determining the degree to which the compounds receptor complex activates the binding of GTP to G-proteins to which the receptors are coupled. In the GTP binding assay, GTP[γ]^35S is combined with test compounds and membranes from HEK-293S cells expressing the cloned human opioid receptors or from homogenised rat and mouse brain. Agonists stimulate GTP[γ]^35S binding in these membranes. The EC50 and Emax values of compounds are determined from dose-response curves. Right shifts of the dose response curve by the delta antagonist naltrindole are performed to verify that agonist activity is mediated through delta receptors. For human δ receptor functional assays, EC50 (low) is measured when the human δ receptors used in the assay were expressed at lower levels in comparison with those used in determining EC50 (high). The Emax values were determined in relation to the standard δ agonist SNC80, i.e., higher than 100% is a compound that have better efficacy than SNC80.

[4] = biological target: cloned human κ receptors (Homo sapiens, UniProt P41145); test: Human κ receptor radioligand binding assay; conditions: membranes of human 293S cells; Table 1
Chain of cloned human κ receptors (P41145 whole entry): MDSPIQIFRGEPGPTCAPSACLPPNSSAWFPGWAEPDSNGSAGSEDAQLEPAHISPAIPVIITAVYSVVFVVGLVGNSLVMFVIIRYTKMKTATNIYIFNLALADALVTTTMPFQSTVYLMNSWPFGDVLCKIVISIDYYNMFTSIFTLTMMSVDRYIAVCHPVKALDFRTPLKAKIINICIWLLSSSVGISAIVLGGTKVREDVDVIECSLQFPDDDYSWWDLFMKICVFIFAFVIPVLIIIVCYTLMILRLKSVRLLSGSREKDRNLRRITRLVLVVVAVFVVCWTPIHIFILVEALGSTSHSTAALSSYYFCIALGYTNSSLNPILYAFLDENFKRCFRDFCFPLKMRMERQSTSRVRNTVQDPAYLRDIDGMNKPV

[5] = biological target: T1, cloned human δ receptors; test: Human δ receptor GTP[γ]35S functional assay (high expression); type: biochemical
Method: as §1
as §2, with “The final pellets are resuspended in membrane buffer (50 mM Tris, 0.32 M sucrose, pH 7.0). Aliquots (1 ml) in polypropylene tubes are frozen in dry ice/ethanol and stored at −70° C. until use.” left out
The agonist activity of the compounds is measured by determining the degree to which the compounds receptor complex activates the binding of GTP to G-proteins to which the receptors are coupled. […] The EC50 and Emax values of compounds are determined from dose-response curves. […] For human δ receptor functional assays, EC50 (low) is measured when the human δ receptors used in the assay were expressed at lower levels in comparison with those used in determining EC50 (high). […]

[6] = biological target: T3, δ receptors in rat brain membranes (Rattus norvegicus, UniProt P33533); test: Rat brain GTPγ35S functional assay; type: biochemical
T3 construct: membranes from HEK-293S cells expressing the cloned human opioid receptors or from homogenised rat and mouse brain; from tissue; host or cells: rat brain homogenate membranes
T3 sequence (P33533 whole entry): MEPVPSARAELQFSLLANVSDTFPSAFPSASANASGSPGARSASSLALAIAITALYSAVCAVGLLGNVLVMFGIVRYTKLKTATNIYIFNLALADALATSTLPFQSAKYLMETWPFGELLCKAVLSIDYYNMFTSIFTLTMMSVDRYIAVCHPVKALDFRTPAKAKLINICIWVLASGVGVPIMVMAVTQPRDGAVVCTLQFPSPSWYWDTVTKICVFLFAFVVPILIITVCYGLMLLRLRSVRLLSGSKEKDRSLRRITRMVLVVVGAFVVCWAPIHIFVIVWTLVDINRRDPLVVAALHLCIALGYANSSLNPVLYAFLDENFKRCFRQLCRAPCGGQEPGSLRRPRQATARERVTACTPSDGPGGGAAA
Method: Rat brains are weighed and rinsed in ice-cold PBS (containing 2.5 mM EDTA, pH 7.4). The brains are homogenized with a polytron for 30 sec (rat) in ice-cold lysis buffer (50 mM Tris, pH 7.0, 2.5mM EDTA, with phenylmethylsulfonyl fluoride added just prior use to […] from a 0.5M stock in DMSO:ethanol).
The agonist activity of the compounds is measured by determining the degree to which the compounds receptor complex activates the binding of GTP to G-proteins to which the receptors are coupled. In the GTP binding assay, GTP[γ]^35S is combined with test compounds and membranes from HEK-293S cells expressing the cloned human opioid receptors or from homogenised rat and mouse brain. Agonists stimulate GTP[γ]^35S binding in these membranes. The EC50 and Emax values of compounds are determined from dose-response curves. […] For human δ receptor functional assays, EC50 (low) is measured when the human δ receptors used in the assay were expressed at lower levels in comparison with those used in determining EC50 (high). […]
Rat brain membranes are thawed at 37° C., passed 3 times through a 25-gauge blunt-end needle and diluted in the GTPYS binding (50 mM Hepes, 20 mM NaOH, 100 mM NaCl, 1 mM EDTA, 5 mM MgCl2, pH 7.4, Add fresh: 1 mM DTT, 0.1% BSA). […] The basal and maximal stimulated binding are determined in absence and presence of 3 μM SNC-80.

[7] = Human δ IC50, Table 2, range over the listed compounds
[8] = Human μ IC50, Table 2, range over the listed compounds

T1 sequence (P41143 whole entry): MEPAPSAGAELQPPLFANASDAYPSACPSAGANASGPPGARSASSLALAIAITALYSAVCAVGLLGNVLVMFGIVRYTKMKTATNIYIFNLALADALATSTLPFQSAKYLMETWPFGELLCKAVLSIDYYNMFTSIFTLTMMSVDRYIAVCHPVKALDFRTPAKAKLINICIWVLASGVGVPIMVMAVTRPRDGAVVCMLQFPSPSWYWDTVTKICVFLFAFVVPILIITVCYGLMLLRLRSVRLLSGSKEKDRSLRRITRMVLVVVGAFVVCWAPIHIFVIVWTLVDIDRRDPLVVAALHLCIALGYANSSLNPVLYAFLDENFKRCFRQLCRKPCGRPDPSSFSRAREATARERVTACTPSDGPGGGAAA

Row | Structure (SMILES) | IC50 [1, 7] [nM] | IC50 [2, 8] [nM] | EC50 [3] [nM] | Emax [3] [%] | IC50 ([1]; Human δ IC50, membranes of human 293S cells, displacement of radioligand, Table 1) [nM] | IC50 ([2]; Human μ IC50, membranes of human 293S cells, Table 1) [nM] | IC50 [4] [nM] | EC50 [5] [nM] | Emax ([5]; relative to standard δ agonist SNC80, higher expression level) [%] | EC50 [6] [nM] | Emax ([6]; relative to SNC80, rat brain membranes) [%]
1 | CCN(CC)C(=O)c1ccc(C(c2cccc(C(N)=O)c2)N2CCN(Cc3ccccc3)CC2)cc1 (single isomer, unassigned) [Compound 1b, 3-[(4-[(diethylamino)carbonyl]phenyl)(4-benzyl-piperazin-1-yl)methyl]benzamide] | 0.14 to 3.73 | 45 to 1720 | 0.5 to 83 | 91 to 104 |  |  |  |  |  |  | 
2 | CCN(CC)C(=O)c1ccc(C(c2cccc(C(N)=O)c2)N2CCN(Cc3ccccc3)CC2)cc1 (single isomer, unassigned) [Compound 1a, 3-[(4-[(diethylamino)carbonyl]phenyl)(4-benzyl-piperazin-1-yl)methyl]benzamide] |  |  |  |  | 0.26 | 7.7 | 112 | 0.29 | 101 | 0.2 | 170
3 | CCN(CC)C(=O)c1ccc(C(c2cccc(C(=O)NC)c2)N2CCN(Cc3ccccc3)CC2)cc1 (single isomer, unassigned) [Compound 3a, 3-[[4-[(diethylamino)carbonyl]phenyl][4-(phenylmethyl)-1-piperazinyl]methyl]-N-methyl-benzamide] | 0.14 to 3.73 | 45 to 1720 | 0.5 to 83 | 91 to 104 |  |  |  |  |  |  | 
4 | CCN(CC)C(=O)c1ccc(C(c2cccc(C(N)=O)c2)N2CCN(Cc3ccco3)CC2)cc1 (single isomer, unassigned) [Compound 2a, 3-{(4-[(diethylamino)carbonyl]phenyl)[4-(2-furylmethyl)-piperazin-1-yl]methyl}benzamide] | 0.14 to 3.73 | 45 to 1720 | 0.5 to 83 | 91 to 104 |  |  |  |  |  |  | 
